Data on two compounds can be found in US20110190130A1, “SYNERGISTIC HERBICIDAL COMPOSITION CONTAINING AMINOPYRALID AND 2,4-DICHLOROPHENOXYACETIC ACID” (DOW AGROSCIENCES LLC, priority 2010, published 2011).

Holding throughout (assay type): in vivo
The subject of test [1] is purple nutsedge (Cyperus rotundus, CYPRO). In words: Postemergence herbicidal activity of mixtures under field conditions, purple nutsedge. The settings on record: 27 days after application, rice. The procedure:
(§1) These trials were conducted under field conditions in Tolima, Colombia. Trial sites were located in commercially grown fields of common rice (Oryza sativa). The rice crop was grown using normal cultural practices for fertilization, seeding, and maintenance to ensure good growth of the crop and the weeds. The trials were conducted using normal research methodology. Trial plots were 3 meters (m) wide by 6 m long. All treatments were applied using a randomized complete block trial design with 4 replications per treatment. The trial sites had naturally occurring populations of weeds. The weed spectrum included, but was not limited to, rice flatsedge (Cyperus iria, CYPIR); purple nutsedge (Cyperus rotundus, CYPRO); and common purslane, (Portulaca oleracea, POROL). The plots were treated with a postemergence foliar application 15 to 20 days after emergence of the rice.
(§2) Treatments consisted of tank mixes of soluble granules of aminopyralid tri-isopropanolammonium salt and commercially available formulations of 2,4-D (DMA 6 herbicide, water dispersible granules). The application volume was 160 liters per hectare (L/ha) of water. All application were made using precision gas hand sprayers using a 3 m boom using flat fan) (80° nozzles to broadcast the treatments over the top of the rice.
(§3) The treated plots and control plots were rated blind at various intervals after application. Ratings were based of Percent (%) Visual weed control, where 0 corresponds to no injury and 100 corresponds to complete kill.
(§4) Colby's equation was used to determine the herbicidal effects expected from the mixtures (Colby, S. R. Calculation of the synergistic and antagonistic response of herbicide combinations. Weeds 1967 15, 20-22).
(§5) The following equation was used to calculate the expected activity of mixtures containing two active ingredients, A and B:
(§6) A=observed efficacy of active ingredient A at the same concentration as used in the mixture;
(§7) B=observed efficacy of active ingredient B at the same concentration as used in the mixture.

The subject of test [2] is common purslane (Portulaca oleracea, POROL). In words: Postemergence herbicidal activity of mixtures under field conditions, common purslane. The settings on record: 27 days after application, rice. As for the experimental part: as §1, §2, §3, §4, §5, §6, §7
The subject of test [3] is rice flatsedge (Cyperus iria, CYPIR). Description: Postemergence herbicidal activity of mixtures under field conditions, rice flatsedge. The settings on record: 27 days after application. As for the experimental part:
as §1, §2, §3, §4, §5, §6, §7

Where [4] appears, read: aminopyralid 9 grams ae/ha alone.
[5] abbreviates: aminopyralid 12 grams ae/ha alone.

Consider `O=C(O)COc1ccc(Cl)cc1Cl` [2,4-D, 2,4-dichlorophenoxyacetic acid], for which the “% Control CYPRO Obs” value in test [1] (2,4-D 180 grams ae/ha alone) turned out to be 38%; in test [1] (2,4-D 240 grams ae/ha alone) it was 60%. For the same compound, the “% Control POROL Obs” value is reported as 20% in test [2] (2,4-D 180 grams ae/ha alone) and 39% in test [2] (2,4-D 240 grams ae/ha alone). Also, the “% Control CYPIR Obs” value is 45% in test [3] (2,4-D 180 grams ae/ha alone) and 46% in test [3] (2,4-D 240 grams ae/ha alone).

Regarding `Nc1cc(Cl)nc(C(=O)O)c1Cl` [Aminopyralid, 4-amino-3,6-dichloro-2-pyridinecarboxylic acid], the “% Control CYPRO Obs” value in test [1] (setting [4]) and in test [1] (setting [5]) was 0% each time. The “% Control POROL Obs” value in test [2] (setting [4]) was determined as 41%; in test [2] (setting [5]) it was 53%. The figures for the “% Control CYPIR Obs” value in test [3] (setting [4]) and in test [3] (setting [5]) were 0% and 13%, respectively.
